Results as given in ChEMBL document CHEMBL1158896, “Isolation and structure of the cytotoxic cycloheptapeptide phakellistatin 13” (2003).
The source made the active and inactive calls. No cut-off for these calls is given here. Where a SMILES comes first, the peptide text is derived from it.

Assays:
HL-60 = assay: Cytotoxicity against human HL60 cells; format: functional, cell-based
[1] = Cytotoxicity against human Bel7404 cells; format: functional; details: BEL-7404, read-out: ED50 (the source's name)

SMILES	Activity (HL-60)	EC50 [1] [µg/mL]
CC(C)C[C@@H]1NC(=O)[C@H]([C@@H](C)O)NC(=O)[C@@H]2CCCN2C(=O)CNC(=O)[C@H](Cc2ccccc2)NC(=O)[C@@H]2CCCN2C(=O)[C@H](Cc2c[nH]c3ccccc23)NC1=O (cyclo(FGPTLWP))	inactive	
CC(C)C[C@@H]1NC(=O)[C@H](Cc2c[nH]c3ccccc23)NC(=O)[C@@H]2CCCN2C(=O)[C@H](Cc2ccccc2)NC(=O)CNC(=O)[C@@H]2CCCN2C(=O)[C@H]([C@@H](C)O)NC1=O [PHAKELLISTATIN 13] (cyclo(FPWLTPG))		< 0.01
